Laboratory results: PubChem BioAssay (NCI)
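GI50 is the concentration that inhibits growth by half. TGI marks complete inhibition of growth.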

Legend:
Assay in all cases: inhibition of tumour cell growth, NCI panel, 384-well format
A498 renal = test system: A498 renal
ACHN renal = test system: ACHN renal
BT-549 breast = test system: BT-549 breast
CAKI-1 renal = test system: CAKI-1 renal
COLO 205 colon = test system: COLO 205 colon
DU-145 prostate = test system: DU-145 prostate
HCC-2998 colon = test system: HCC-2998 colon
HCT-116 colon = test system: HCT-116 colon
HCT-15 colon = test system: HCT-15 colon
HL-60(TB) leukemia = test system: HL-60(TB) leukemia
HOP-62 NSCLC = test system: HOP-62 NSCLC
HOP-92 NSCLC = test system: HOP-92 NSCLC
HS 578T breast = test system: HS 578T breast
HT29 colon = test system: HT29 colon
IGROV1 ovarian = test system: IGROV1 ovarian
K-562 leukemia = test system: K-562 leukemia
KM12 colon = test system: KM12 colon
M14 melanoma = test system: M14 melanoma
MALME-3M melanoma = test system: MALME-3M melanoma
MDA-MB-435 melanoma = test system: MDA-MB-435 melanoma
MOLT-4 leukemia = test system: MOLT-4 leukemia
NCI-H226 lung = test system: NCI-H226 lung
NCI-H23 lung = test system: NCI-H23 lung
NCI-H322M lung = test system: NCI-H322M lung
NCI-H522 lung = test system: NCI-H522 lung
NCI/ADR-RES ovarian = test system: NCI/ADR-RES ovarian
OVCAR-3 ovarian = test system: OVCAR-3 ovarian
OVCAR-4 ovarian = test system: OVCAR-4 ovarian
OVCAR-5 ovarian = test system: OVCAR-5 ovarian
OVCAR-8 ovarian = test system: OVCAR-8 ovarian
PC-3 prostate = test system: PC-3 prostate
RPMI-8226 leukemia = test system: RPMI-8226 leukemia
RXF 393 renal = test system: RXF 393 renal
SF-268 CNS = test system: SF-268 CNS
SF-295 CNS = test system: SF-295 CNS
SK-MEL-2 melanoma = test system: SK-MEL-2 melanoma
SK-MEL-28 melanoma = test system: SK-MEL-28 melanoma
SK-MEL-5 melanoma = test system: SK-MEL-5 melanoma
SK-OV-3 ovarian = test system: SK-OV-3 ovarian
SN12C renal = test system: SN12C renal
SNB-19 CNS = test system: SNB-19 CNS
SR leukemia = test system: SR leukemia
SW-620 colon = test system: SW-620 colon
T-47D breast = test system: T-47D breast
TK-10 renal = test system: TK-10 renal
U251 glioblastoma = test system: U251 glioblastoma
UACC-62 melanoma = test system: UACC-62 melanoma
UO-31 renal = test system: UO-31 renal

O=C(NC[C@H](O)CN1CCc2ccccc2C1)c1cc(NC2COC2)ncn1
GI50 (A498 renal): > 100 µM
TGI (A498 renal): > 100 µM
GI50 (ACHN renal): > 100 µM
TGI (ACHN renal): > 100 µM
GI50 (BT-549 breast): > 100 µM
TGI (BT-549 breast): > 100 µM
GI50 (CAKI-1 renal): > 100 µM
TGI (CAKI-1 renal): > 100 µM
GI50 (COLO 205 colon): > 100 µM
TGI (COLO 205 colon): > 100 µM
GI50 (DU-145 prostate): > 100 µM
TGI (DU-145 prostate): > 100 µM
GI50 (HCC-2998 colon): > 100 µM
TGI (HCC-2998 colon): > 100 µM
GI50 (HCT-116 colon): > 100 µM
TGI (HCT-116 colon): > 100 µM
GI50 (HCT-15 colon): > 100 µM
TGI (HCT-15 colon): > 100 µM
GI50 (HL-60(TB) leukemia): > 28.3 µM
TGI (HL-60(TB) leukemia): > 100 µM
GI50 (HOP-62 NSCLC): > 100 µM
TGI (HOP-62 NSCLC): > 100 µM
GI50 (HOP-92 NSCLC): > 100 µM
TGI (HOP-92 NSCLC): > 100 µM
GI50 (HS 578T breast): > 100 µM
TGI (HS 578T breast): > 100 µM
GI50 (HT29 colon): > 100 µM
TGI (HT29 colon): > 100 µM
GI50 (IGROV1 ovarian): > 100 µM
TGI (IGROV1 ovarian): > 100 µM
GI50 (K-562 leukemia): > 100 µM
TGI (K-562 leukemia): > 100 µM
GI50 (KM12 colon): > 42.7 µM
TGI (KM12 colon): > 100 µM
GI50 (M14 melanoma): > 100 µM
TGI (M14 melanoma): > 100 µM
GI50 (MALME-3M melanoma): > 100 µM
TGI (MALME-3M melanoma): > 100 µM
GI50 (MDA-MB-435 melanoma): > 100 µM
TGI (MDA-MB-435 melanoma): > 100 µM
GI50 (MOLT-4 leukemia): 0.0768 µM
GI50 (NCI-H226 lung): > 100 µM
TGI (NCI-H226 lung): > 100 µM
GI50 (NCI-H23 lung): > 100 µM
TGI (NCI-H23 lung): > 100 µM
GI50 (NCI-H322M lung): > 100 µM
TGI (NCI-H322M lung): > 100 µM
GI50 (NCI-H522 lung): > 100 µM
TGI (NCI-H522 lung): > 100 µM
GI50 (NCI/ADR-RES ovarian): > 100 µM
TGI (NCI/ADR-RES ovarian): > 100 µM
GI50 (OVCAR-3 ovarian): > 69.1 µM
TGI (OVCAR-3 ovarian): > 100 µM
GI50 (OVCAR-4 ovarian): 21.8 µM
TGI (OVCAR-4 ovarian): > 100 µM
GI50 (OVCAR-5 ovarian): > 100 µM
TGI (OVCAR-5 ovarian): > 100 µM
GI50 (OVCAR-8 ovarian): > 100 µM
TGI (OVCAR-8 ovarian): > 100 µM
GI50 (PC-3 prostate): > 100 µM
TGI (PC-3 prostate): > 100 µM
GI50 (RPMI-8226 leukemia): > 47.7 µM
TGI (RPMI-8226 leukemia): > 100 µM
GI50 (RXF 393 renal): > 100 µM
TGI (RXF 393 renal): > 100 µM
GI50 (SF-268 CNS): > 100 µM
TGI (SF-268 CNS): > 100 µM
GI50 (SF-295 CNS): > 100 µM
TGI (SF-295 CNS): > 100 µM
GI50 (SK-MEL-2 melanoma): > 100 µM
TGI (SK-MEL-2 melanoma): > 100 µM
GI50 (SK-MEL-28 melanoma): > 100 µM
TGI (SK-MEL-28 melanoma): > 100 µM
GI50 (SK-MEL-5 melanoma): > 100 µM
TGI (SK-MEL-5 melanoma): > 100 µM
GI50 (SK-OV-3 ovarian): > 100 µM
TGI (SK-OV-3 ovarian): > 100 µM
GI50 (SN12C renal): > 100 µM
TGI (SN12C renal): > 100 µM
GI50 (SNB-19 CNS): > 100 µM
TGI (SNB-19 CNS): > 100 µM
GI50 (SR leukemia): 0.117 µM
TGI (SR leukemia): 8.35 µM
GI50 (SW-620 colon): > 100 µM
TGI (SW-620 colon): > 100 µM
GI50 (T-47D breast): 4.97 µM
TGI (T-47D breast): > 100 µM
GI50 (TK-10 renal): > 100 µM
TGI (TK-10 renal): > 100 µM
GI50 (U251 glioblastoma): > 100 µM
TGI (U251 glioblastoma): > 100 µM
GI50 (UACC-62 melanoma): > 100 µM
TGI (UACC-62 melanoma): > 100 µM
GI50 (UO-31 renal): > 100 µM
TGI (UO-31 renal): > 100 µM

CN1CCN(c2ccc(Nc3cc(-c4cccc(-n5ccc6cc(C7CC7)cc(F)c6c5=O)c4CO)cn(C)c3=O)nc2)CC1
GI50 (A498 renal): 2.05 µM
TGI (A498 renal): 3.96 µM
GI50 (ACHN renal): 1.6 µM
TGI (ACHN renal): 3.01 µM
GI50 (BT-549 breast): 2.24 µM
TGI (BT-549 breast): 5.29 µM
GI50 (CAKI-1 renal): 2.18 µM
TGI (CAKI-1 renal): 5.6 µM
GI50 (COLO 205 colon): 2.02 µM
TGI (COLO 205 colon): 3.69 µM
GI50 (DU-145 prostate): 2.97 µM
TGI (DU-145 prostate): 9.08 µM
GI50 (HCC-2998 colon): 2.09 µM
TGI (HCC-2998 colon): 5.3 µM
GI50 (HCT-116 colon): 1.71 µM
TGI (HCT-116 colon): 3.26 µM
GI50 (HCT-15 colon): 2.45 µM
TGI (HCT-15 colon): 7.4 µM
GI50 (HL-60(TB) leukemia): 1.84 µM
TGI (HL-60(TB) leukemia): 3.25 µM
GI50 (HOP-62 NSCLC): 2.77 µM
TGI (HOP-62 NSCLC): 7.57 µM
GI50 (HOP-92 NSCLC): 2.11 µM
TGI (HOP-92 NSCLC): 4.78 µM
GI50 (HS 578T breast): 1.82 µM
TGI (HS 578T breast): 3.48 µM
GI50 (HT29 colon): 1.72 µM
TGI (HT29 colon): 3.19 µM
GI50 (IGROV1 ovarian): 2.89 µM
TGI (IGROV1 ovarian): 9.19 µM
GI50 (K-562 leukemia): 1.77 µM
TGI (K-562 leukemia): 3.33 µM
GI50 (KM12 colon): 2.4 µM
TGI (KM12 colon): 5.1 µM
GI50 (M14 melanoma): 2.01 µM
TGI (M14 melanoma): 3.54 µM
GI50 (MALME-3M melanoma): 1.86 µM
TGI (MALME-3M melanoma): 3.27 µM
GI50 (MDA-MB-435 melanoma): 3.59 µM
TGI (MDA-MB-435 melanoma): 11.7 µM
GI50 (MOLT-4 leukemia): 1.51 µM
TGI (MOLT-4 leukemia): 2.85 µM
GI50 (NCI-H226 lung): 1.99 µM
TGI (NCI-H226 lung): 4.03 µM
GI50 (NCI-H23 lung): 2.73 µM
TGI (NCI-H23 lung): 8.14 µM
GI50 (NCI-H322M lung): 3.91 µM
TGI (NCI-H322M lung): 9.99 µM
GI50 (NCI-H522 lung): 2.05 µM
TGI (NCI-H522 lung): 4.02 µM
GI50 (NCI/ADR-RES ovarian): 2.51 µM
TGI (NCI/ADR-RES ovarian): 5.66 µM
GI50 (OVCAR-3 ovarian): 1.79 µM
TGI (OVCAR-3 ovarian): 3.28 µM
GI50 (OVCAR-4 ovarian): 1.63 µM
TGI (OVCAR-4 ovarian): 3.11 µM
GI50 (OVCAR-5 ovarian): 1.94 µM
TGI (OVCAR-5 ovarian): 3.97 µM
GI50 (OVCAR-8 ovarian): 1.79 µM
TGI (OVCAR-8 ovarian): 3.56 µM
GI50 (PC-3 prostate): 3.78 µM
TGI (PC-3 prostate): 12.1 µM
GI50 (RPMI-8226 leukemia): 2.06 µM
TGI (RPMI-8226 leukemia): 3.56 µM
GI50 (RXF 393 renal): 1.6 µM
TGI (RXF 393 renal): 3.11 µM
GI50 (SF-268 CNS): 2.4 µM
TGI (SF-268 CNS): 7.46 µM
GI50 (SF-295 CNS): 2.21 µM
TGI (SF-295 CNS): 4.93 µM
GI50 (SK-MEL-2 melanoma): 1.8 µM
TGI (SK-MEL-2 melanoma): 3.34 µM
GI50 (SK-MEL-28 melanoma): 1.71 µM
TGI (SK-MEL-28 melanoma): 3.11 µM
GI50 (SK-MEL-5 melanoma): 1.62 µM
TGI (SK-MEL-5 melanoma): 3.02 µM
GI50 (SK-OV-3 ovarian): 2.59 µM
TGI (SK-OV-3 ovarian): 6.61 µM
GI50 (SN12C renal): 1.76 µM
TGI (SN12C renal): 3.63 µM
GI50 (SNB-19 CNS): 3.96 µM
TGI (SNB-19 CNS): 13.5 µM
GI50 (SR leukemia): 1.58 µM
TGI (SR leukemia): 2.94 µM
GI50 (SW-620 colon): 2.61 µM
TGI (SW-620 colon): 6.97 µM
GI50 (T-47D breast): 1.75 µM
TGI (T-47D breast): 3.71 µM
GI50 (TK-10 renal): 2.32 µM
TGI (TK-10 renal): 5.77 µM
GI50 (U251 glioblastoma): 2.2 µM
TGI (U251 glioblastoma): 4.54 µM
GI50 (UACC-62 melanoma): 1.74 µM
TGI (UACC-62 melanoma): 3.16 µM
GI50 (UO-31 renal): 1.77 µM
TGI (UO-31 renal): 3.19 µM
